Laboratory results taken from patent US6143764A, “Quinoline and quinazoline derivatives inhibiting platelet-derived growth factor receptor autophosphorylation and pharmaceutical compositions containing the same” (priority 1995, dated 2000).

target: T1, PDGF receptor (Rattus norvegicus, UniProt Q05030); test: PDGF receptor autophosphorylation inhibition in cultured rat mesangial cells; format: cell-based; settings: PDGF-BB 50 ng/ml
T1 construct: cultured rat mesangial cells which are known to have the PDGF receptor; endogenous in cells; host or cells: primary mesangial cells cultured from glomeruli of Wistar-Kyoto rats (Charles River Japan), more than 5 passages
Experimental: 1. Cultivation of rat mesangial cells
The glomerulus-derived adhesive cells were subcultured several times to obtain mesangial cells. The mesangial cells subcultured more than 5 passages were used for the assay.
2.Evaluation of PDGF receptor autophosphorylation inhibition
The mesangial cells were seeded in 24-well flat-bottom microtiter plates and then cultured in the medium containing 10% FCS for 2 days. When the cells were grown to about 3×10^4 cells per well, the medium was changed to the medium containing 0.5% FCS, the cultivation was continued for another 3 days, and then cell growth was arrested. The culture medium was removed, the adhered cells were washed with 500 μl of the medium, and 250 μl of the medium containing 0.1% bovine serum albumin (hereinafter abbreviated to BSA) was then added. A test drug dissolved in 1.38 μl of dimethyl sulfoxide (hereinafter abbreviated to DMSO) was added to this culture medium, and the admixture was incubated at 37° C. for 1 hour. Recombinant human platelet-derived growth factor BB chain (hereinafter abbreviated to PDGF-BB) was dissolved in the medium containing 0.1% BSA, 25 μl per well of the solution was added at final 50 ng/ml, and the incubation was continued at 37° C. for 10 minutes. […] The cells were allowed to stand at 4° C. for 30 minutes for lysis, and the resulting solution was thoroughly admixed with an equal amount of Tris-buffered physiological saline containing 1% sodium dodecyl sulfate (hereinafter abbreviated to SDS). […] After the electrophoresis, proteins in the gel were electrically transferred to a PVDF filter, which was then subjected to Western blotting using monoclonal antibodies against phosphotyrosine. Bands of PDGF receptor (molecular weight: about 180 Kda) which were autophosphorylated due to the addition of PDGF-BB were quantitated by a densitometer. Autophosphorylation rates for individual wells with drugs were calculated by setting measurements for PDGF receptor autophosphorylation in the wells without drugs in the presence and absence of PDGF-BB as 100% and 0%, respectively.

T1 sequence (Q05030 32-1097): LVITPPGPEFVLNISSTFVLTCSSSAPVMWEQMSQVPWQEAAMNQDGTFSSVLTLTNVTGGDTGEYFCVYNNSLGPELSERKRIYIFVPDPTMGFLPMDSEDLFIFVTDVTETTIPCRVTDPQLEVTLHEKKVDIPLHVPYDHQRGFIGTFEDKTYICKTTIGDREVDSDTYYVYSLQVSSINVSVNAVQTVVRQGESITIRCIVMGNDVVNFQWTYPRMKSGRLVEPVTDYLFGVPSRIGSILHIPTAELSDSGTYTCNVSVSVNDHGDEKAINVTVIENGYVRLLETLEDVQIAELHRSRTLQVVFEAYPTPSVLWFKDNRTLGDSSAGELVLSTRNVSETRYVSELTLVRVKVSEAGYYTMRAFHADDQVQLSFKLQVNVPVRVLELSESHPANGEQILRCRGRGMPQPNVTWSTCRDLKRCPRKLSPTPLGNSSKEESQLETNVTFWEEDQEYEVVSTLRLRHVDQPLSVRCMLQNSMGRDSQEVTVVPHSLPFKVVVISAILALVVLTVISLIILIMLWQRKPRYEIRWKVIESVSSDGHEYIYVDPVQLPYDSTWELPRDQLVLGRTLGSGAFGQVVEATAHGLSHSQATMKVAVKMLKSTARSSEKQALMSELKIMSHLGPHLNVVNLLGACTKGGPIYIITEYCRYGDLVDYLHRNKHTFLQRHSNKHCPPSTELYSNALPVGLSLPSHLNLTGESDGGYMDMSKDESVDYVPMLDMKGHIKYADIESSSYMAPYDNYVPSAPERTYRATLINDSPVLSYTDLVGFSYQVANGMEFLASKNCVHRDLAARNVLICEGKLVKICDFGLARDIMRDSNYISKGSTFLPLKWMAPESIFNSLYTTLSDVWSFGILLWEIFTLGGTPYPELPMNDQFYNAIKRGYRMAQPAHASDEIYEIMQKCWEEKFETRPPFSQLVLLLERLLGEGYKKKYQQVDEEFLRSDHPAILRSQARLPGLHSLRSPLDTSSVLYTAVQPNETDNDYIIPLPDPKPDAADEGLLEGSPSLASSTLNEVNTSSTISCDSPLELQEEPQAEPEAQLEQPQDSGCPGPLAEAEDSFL

SMILES	IC50 [µM]
CCCCc1ccc(NC(=O)Nc2ccc(Oc3ccnc4cc(OC)c(OC)cc34)cc2)cc1 [Compound 47, N-(4-Butylphenyl)-N'-{4-[(6,7-dimethoxy-4-quinolinyl)oxy]phenyl}urea]	0.043
COc1cc2nccc(Oc3ccc(NC(=O)Nc4ccc([N+](=O)[O-])cc4)cc3)c2cc1OC [Compound 46, N-{4-[(6,7-Dimethoxy-4-quinolinyl)oxy]phenyl}-N'-(4-nitrophenyl)urea]	0.021
COc1cc2nccc(Oc3ccc(NC(=O)Nc4cccc(O)c4)cc3)c2cc1OC [Compound 282, N-(3-Hydroxyphenyl)-N'-{4-[(6,7-dimethoxy-4-quinolyl)oxy]phenyl}urea]	0.008
COc1cc2nccc(Oc3ccc(NC(=O)Nc4cccc(N)c4)cc3)c2cc1OC [Compound 172, N-(3-Aminophenyl)-N'-{4-[(6,7-dimethoxy-4-quinolyl)oxy]phenyl}urea]	0.01
COc1ccc(NC(=O)N(C)c2ccc(Oc3ccnc4cc(OC)c(OC)cc34)cc2)cc1 [Compound 200, N-Methyl-N-{4-[(6,7-dimethoxy-4-quinolyl)oxy]phenyl}-N'-(4-methoxyphenyl)urea]	0.004
COc1ccc(NC(=O)Nc2ccc(Oc3ccnc4cc(OC)c(OC)cc34)cc2)cc1OC [Compound 198, N-(3,4-Dimethoxyphenyl)-N'-{4-[(6,7-dimethoxy-4-quinolyl)oxy]phenyl}urea]	0.011
COc1cc2nccc(Oc3ccc(NC(=O)Nc4cc(F)ccc4F)cc3)c2cc1OC [Compound 273, N-(2,5-Difluorophenyl)-N'-{4-[(6,7-dimethoxy-4-quinolyl)oxy]phenyl}urea]	0.005
COCCNC(=O)Nc1ccc(Oc2ccnc3cc(OC)c(OC)cc23)cc1 [Compound 246, N-(2-Methoxyethyl)-N'-{4-[(6,7-dimethoxy-4-quinolyl)oxy]phenyl}urea]	0.013
COc1cc2nccc(Oc3ccc(NC(=O)Nc4cccc(C(=O)O)c4)cc3)c2cc1OC [Compound 283, N-(3-Hydroxycarbonylphenyl)-N'-{4-[(6,7-dimethoxy-4-quinolyl)oxy]phenyl}urea]	0.002
CCCCCCNC(=O)Nc1ccc(Oc2ccnc3cc(OC)c(OC)cc23)cc1 [Compound 196, N-Hexyl-N'-{4-[(6,7-dimethoxy-4-quinolyl)oxy]phenyl}urea]	0.031
COc1cc2nccc(Oc3ccc(NC(=O)Nc4c(Cl)cccc4Cl)cc3)c2cc1OC [Compound 230, N-(2,6-Dichlorophenyl)-N'-{4-[(6,7-dimethoxy-4-quinolyl)oxy]phenyl}urea]	0.034
COc1cc2nccc(Oc3ccc(NC(=O)c4ccc([N+](=O)[O-])cc4)cc3)c2cc1OC [Compound 66, N-{4-[(6,7-Dimethoxy-4-quinolinyl)oxy]phenyl}-(4-nitrophenyl)carboxamide]	0.13
COc1cc2nccc(Oc3cccc(C(C)=O)c3)c2cc1OC [Compound 6]	0.45
COc1cc2nccc(Oc3ccc(NC(=O)Nc4ccc(N)cc4Cl)cc3)c2cc1OC [Compound 274, N-(4-Amino-2-chlorophenyl)-N'-{4-[(6,7-dimethoxy-4-quinolyl)oxy]phenyl}urea]	0.036
COc1cc2nccc(Oc3ccc(C(=O)c4ccc(C(F)(F)F)cc4)cc3)c2cc1OC [Compound 29, (4-Trifluoromethylphenyl){4-[(6,7-dimethoxy-4-quinolyl)oxy]phenyl}methanone]	0.8
COc1cc2nccc(Oc3ccc(NC(=O)Nc4ccccc4C(C)C)cc3)c2cc1OC [Compound 166, N-(2-Isopropylphenyl)-N'-{4-[(6,7-dimethoxy-4-quinolyl)oxy]phenyl}urea]	0.011
COc1cc2nccc(Oc3ccc(NC(=O)Nc4cccc(C(F)(F)F)c4)cc3)c2cc1OC [Compound 53]	0.01

SMILES	IC50 [µM]
CCCCOc1ccc(C(=O)Nc2ccc(Oc3ccnc4cc(OC)c(OC)cc34)cc2)cc1 [Compound 74, N-{4-[(6,7-Dimethoxy-4-quinolinyl)oxy]phenyl}-(4-butoxyphenyl)carboxamide]	0.34
COc1cc2nccc(Oc3ccc(NC(=O)Nc4ccc(C(C)=O)cc4)cc3)c2cc1OC [Compound 49, N-(4-Acetylphenyl)-N'-{4-[(6,7-dimethoxy-4-quinolinyl)oxy]phenyl}urea]	0.018
COc1cc2nccc(Oc3ccc(NC(=O)Nc4ccc(Cl)cc4N)cc3)c2cc1OC [Compound 239, N-(2-Amino-4-chlorophenyl)-N'-{4-[(6,7-dimethoxy-4-quinolyl)oxy]phenyl}urea]	0.005
CCCCc1ccccc1NC(=O)Nc1ccc(Oc2ccnc3cc(OC)c(OC)cc23)cc1 [Compound 232, N-(2-n-Butylphenyl)-N'-(4-[(6,7-dimethoxy-4-quinolyl)oxy]phenyl}urea]	0.018
COc1cc2nccc(Oc3ccc(NC(=O)Nc4ccc(Cl)cc4[N+](=O)[O-])cc3)c2cc1OC [Compound 238, N-(4-Chloro-2-nitrophenyl)-N'-{4-[(6,7-dimethoxy-4-quinolyl)oxy]phenyl}urea]	0.016
COc1cc2nccc(Oc3ccc(NC(=O)NCc4ccncc4)cc3)c2cc1OC [Compound 250]	0.017
COc1cc2nccc(Oc3ccc(NC(=O)Nc4cccc(OC)c4OC)cc3)c2cc1OC [Compound 268, N-(2,3-Dimethoxyphenyl)-N'-{4-[(6,7-dimethoxy-4-quinolyl)oxy]phenyl}urea]	0.007
COc1cc2nccc(Oc3ccc(NC(=O)Nc4ccccc4Cl)cc3)c2cc1OC [Compound 266, N-(2-Chlorophenyl)-N'-{4-[(6,7-dimethoxy-4-quinolyl)oxy]phenyl}urea]	0.001
COc1cc2nccc(Oc3ccc(NC(=O)Nc4c(C)cccc4Cl)cc3)c2cc1OC [Compound 226, N-(2-Chloro-6-methylphenyl)-N'-{4-[(6,7-dimethoxy-4-quinolyl)oxy]phenyl}urea]	0.011
COc1cc2nccc(Oc3ccc(NC(=O)Nc4ccc(O)cc4)cc3)c2cc1OC [Compound 269, N-(4-Hydroxyphenyl)-N'-{4-[(6,7-dimethoxy-4-quinolyl)oxy]phenyl}urea]	0.008
COc1cc2nccc(Oc3ccc(NC(=O)Nc4ccccc4O)cc3)c2cc1OC [Compound 281, N-(2-Hydroxyphenyl)-N'-{4-[(6,7-dimethoxy-4-quinolyl)oxy]phenyl}urea]	0.012
COc1cc2nccc(Oc3ccc(NC(=O)Nc4ccc5c(c4)OCCO5)cc3)c2cc1OC [Compound 199, N-(3,4-Ethylenedioxyphenyl)-N'-{4-[(6,7-dimethoxy-4-quinolyl)oxy]phenyl}urea]	0.003
COc1cc2nccc(Oc3ccc(NC(=O)NCc4ccc(N(C)C)cc4)cc3)c2cc1OC [Compound 251, N-{4-[(6,7-Dimethoxy-4-quinolyl)oxy]phenyl}-N'-[(4-dimethylaminophenyl)methyl]urea]	0.036
COc1cc2nccc(Oc3ccc(NC(=O)C4CCCCC4)cc3)c2cc1OC [Compound 63, N-{4-[(6,7-Dimethoxy-4-quinolinyl)oxy]phenyl}-cyclohexanecarboxamide]	0.4
COc1cc2nccc(Oc3ccc(NC(=O)NC(=O)c4ccccn4)cc3)c2cc1OC [Compound 240, N-{4-[(6,7-dimethoxy-4-quinolyl)oxy]phenyl}-N'-(2-pyridinecarbonyl)urea]	0.15
COc1cc2nccc(Oc3ccc(NC(=O)c4ccc(Br)cc4)cc3)c2cc1OC [Compound 75, N-{4-[(6,7-Dimethoxy-4-quinolinyl)oxy]phenyl}-(4-bromophenyl)carboxamide]	0.18
